In US20240124442A1, “TRICYCLIC-AMIDO-BICYCLIC PRMT5 INHIBITORS” (AMGEN INC., priority 2021, published 2024):
pIC50: −log10 of the molar value.

Key:
[1] = tested on: HCT116 MTAP null cells; assay: HCT116 MTAP null cell line proliferation / cell viability (CellTiter-Glo, 6 days); type: cell-based; conditions: 144 h; HCT116 MTAP null cells, 6 days treatment, CellTiter-Glo cell viability; read-out: HCT-116 MTAP null IC50
Summary of the method: (§1)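 Isogenic HCT116 pair (parental and MTAP-knockout) in RPMI 1640 + 10% FBS, treated 6 days with 8–9-point 1:3 dilutions from 1 or 10 μM top, or 22-point 1:2 dilutions from 10 or 50 μM top. Viability by CellTiter-Glo luminescence; IC50 from 4-parameter logistic fit or sigmoidal fit with Hill slope fixed at −1.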

[2] = tested on: HCT116 WT cells; assay: HCT116 WT (parent) cell line proliferation / cell viability (CellTiter-Glo, 6 days); type: cell-based; conditions: Homo sapiens, HCT-116, 144 h, 6 days treatment
Summary of the method: as §1

Row | Structure (SMILES) | pIC50 [1] | pIC50 [2]
1 | CN(C(=O)c1cc2c(cc1F)nc(N)c1cnn(C)c12)[C@H]1COCc2cc(C(F)(F)F)ncc21 [Example 293, 4-amino-7-fluoro-N,1-dimethyl-N-((4R)-7-(trifluoromethyl)-3,4-dihydro-1H-pyrano[4,3-c]-pyridin-4-yl)-1H-pyrazolo[4,3-c]quinoline-8-carboxamide] | 6.52 | 5.14
2 | CN(C(=O)c1cc2c3c(c(N)nc2cn1)COC3)[C@H]1COc2cc(Br)ccc21 (single isomer, unassigned) [Example 346] | 5.22 | 4.43
3 | CCn1cc(-c2ccc3c(c2)OC[C@H]3N(C)C(=O)c2ccc3nc(N)c4cnn(C)c4c3c2)cn1 [Example 639, 4-amino-N-((3S)-6-(1-ethyl-1H-pyrazol-4-yl)-2,3-dihydro-1-benzofuran-3-yl)-N,1-dimethyl-1H-pyrazolo[4,3-c]quinoline-8-carboxamide] | 7.82 | 5.85
4 | CN(C(=O)c1cc2c3c(c(N)nc2cc1F)COC3)[C@@H]1COc2cc(Cl)ccc21 (single isomer, unassigned) [Example 347] | 7.07 | 5.49
5 | CN(C(=O)c1ccc2nc(N)c3cnn(C)c3c2c1)[C@@H]1COc2cc(-c3cnc4c(c3)CC(=O)N4)ccc21 [Example 644, 4-amino-N,1-dimethyl-N-((3S)-6-(2-oxo-2,3-dihydro-1H-pyrrolo[2,3-b]pyridin-5-yl)-2,3-dihydro-1-benzofuran-3-yl)-1H-pyrazolo[4,3-c]quinoline-8-carboxamide] | 7.57 | 5.45
6 | CN(C(=O)c1cc2c(cc1F)nc(N)c1cnn(C)c12)C1c2ccc(C(F)(F)F)nc2CC1(F)F (racemic) [Example 246, 4-amino-N-((5R)-6,6-difluoro-2-(trifluoromethyl)-6,7-dihydro-5H-cyclopenta[b]-pyridin-5-yl)-7-fluoro-N,1-dimethyl-1H-pyrazolo[4,3-c]-quinoline-8-carboxamide and 4-amino-N-((5S)-6,6-difluoro-2-(trifluoromethyl)-6,7-dihydro-5H-cyclopenta[b]pyridin-5-yl)-7-fluoro-N,1-dimethyl-1H-pyrazolo[4,3-c]quinoline-8-carboxamide] | 6.21 | 5.07
7 | CN(C(=O)c1cc2c3c(c(N)nc2cc1Cl)COC3)[C@H]1CCc2nc(C(F)(F)F)ccc21 (single isomer, unassigned) [Example 559] | 5.89 | 4.38
8 | CN(C(=O)c1ccc2nc(N)c3c(cnn3C)c2c1)[C@@H]1COCc2cc(C#N)ccc21 [Example 509, 4-amino-N-((4S)-7-cyano-3,4-dihydro-1H-2-benzopyran-4-yl)-N,3-dimethyl-3H-pyrazolo[3,4-c]quinoline-8-carboxamide] | 6.97 | 5.09
9 | CN(C(=O)c1cnc2nc(N)c3c(c2c1)COC3)[C@H]1COCc2cc(Br)ccc21 (single isomer, unassigned) [Example 589] | 5.10 | 4.46
10 | CCN(C(=O)c1cc2c(cc1C)nc(N)c1c2cnn1C)[C@@H]1COCc2nc(C(F)(F)F)ccc21 [Example 307, 4-amino-N-ethyl-3,7-dimethyl-N-((5S)-2-(trifluoromethyl)-5,8-dihydro-6H-pyrano[3,4-b]-pyridin-5-yl)-3H-pyrazolo-[3,4-c]quinoline-8-carboxamide] | 7.72 | 6.33
11 | CN(C(=O)c1ccc2nc(N)c3cnn(C)c3c2c1)[C@@H]1COCc2nc(C3CC3)ccc21 [Example 684, 4-amino-N-((5S)-2-cyclopropyl-5,8-dihydro-6H-pyrano[3,4-b]pyridin-5-yl)-N,1-dimethyl-1H-pyrazolo[4,3-c]quinoline-8-carboxamide] | 8.22 | 6.64
12 | CCN(C(=O)c1ccc2nc(N)c3c(c2c1)CO[C@@H]3C)[C@@H]1COCc2cc(Br)ccc21 (single isomer, unassigned) [Example 396] | 8.00 | 6.57
13 | CN(C(=O)c1ccc2nc(N)c3cnn(C)c3c2c1)[C@@H]1COc2cc(-c3cnn(C(F)(F)F)c3)ccc21 [Example 620, 4-amino-N,1-dimethyl-N-((3S)-6-(1-(trifluoromethyl)-1H-pyrazol-4-yl)-2,3-dihydro-1-benzofuran-3-yl)-1H-pyrazolo[4,3-c]quinoline-8-carboxamide] | 8.22 | 6.20
14 | CN=S(C)(=O)c1ccc2c(c1)OC[C@H]2N(C)C(=O)c1cc2c3c(c(N)nc2cn1)COC3 (mixture of isomers) [Example 456, 4-amino-N-((3S)-6-((R)-N,S-dimethylsulfonimidoyl)-2,3-dihydro-1-benzofuran-3-yl)-N-methyl-1,3-dihydrofuro[3,4-c][1,7]naphthyridine-8-carboxamide and 4-amino-N-((3S)-6-((S)-N,S-dimethylsulfonimidoyl)-2,3-dihydro-1-benzofuran-3-yl)-N-methyl-1,3-dihydrofuro[3,4-c][1,7]naphthyridine-8-carboxamide] | 6.07 | 4.62
15 | CN(C(=O)c1cnc2nc(N)c3c(c2c1)COC3)[C@@H]1COCc2cc(Br)ccc21 (single isomer, unassigned) [Example 590] | 6.89 | 5.35
16 | CN(C(=O)c1ccc2nc(N)c3cnn(C)c3c2c1)[C@H]1COCc2nc(Br)ccc21 (single isomer, unassigned) [Example 419] | 6.26 | 4.58
17 | CN(C(=O)c1cc2c3c(c(N)nc2cn1)COC3)[C@@H]1COc2cc(C(F)(F)F)ncc21 (single isomer, unassigned) [Example 542] | 6.11 | 4.34
18 | Cc1nn(C)c2c1c(N)nc1cc(F)c(C(=O)N(C)[C@@H]3COCc4cc(C(F)(F)F)ccc43)cc12 [Example 313, 4-amino-7-fluoro-N,1,3-trimeth-yl-N-((4S)-7-(trifluoromethyl)-3,4-dihydro-1H-2-benzopyran-4-yl)-1H-pyrazolo[4,3-c]quin-oline-8-carboxamide] | 7.85 | 6.28
19 | CN(C(=O)c1cc2c3c(c(N)nc2cc1F)COC3)[C@@H]1COc2cc(S(C)(=N)=O)ccc21 (stereo partly drawn) [Example 462, 4-amino-7-fluoro-N-methyl-N-((3S)-6-(S-methylsulfonimidoyl)-2,3-dihydro-1-benzofuran-3-yl)-1,3-dihydrofuro[3,4-c]quinoline-8-carboxamide] | 6.63 | 4.93
20 | CCN(C(=O)c1ccc2nc(N)c3cnn(C)c3c2c1)C1COc2cc(C(F)(F)F)ccc21 (racemic) [Example 228, 4-amino-N-ethyl-1-methyl-N-((3R)-6-(trifluoromethyl)-2,3-dihydro-1-benzofuran-3-yl)-1H-pyrazolo[4,3-c]quinoline-8-carboxamide and 4-amino-N-ethyl-1-methyl-N-((3S)-6-(trifluoromethyl)-2,3-dihydro-1-benzofuran-3-yl)-1H-pyrazolo[4,3-c]quinoline-8-carboxamide] | 8.15 | 6.17
21 | C[C@H]1OCc2c1c(N)nc1cc(F)c(C(=O)N(C)[C@@H]3CCc4nc(C(F)(F)F)ccc43)cc21 (single isomer, unassigned) [Example 359] | 7.77 | 5.91
22 | CN(C(=O)c1cc2c(cc1F)nc(N)c1cnn(C)c12)[C@H]1COCc2c1ccc(F)c2F (single isomer, unassigned) [Example 598] | 6.38 | 5.00
23 | CN(C(=O)c1cc2c3c(c(N)nc2cn1)COC3)C1COc2cc(C(F)(F)F)cc(F)c21 (racemic) [Example 455, 4-amino-N-((3R)-4-fluoro-6-(trifluoromethyl)-2,3-dihydro-1-benzofuran-3-yl)-N-methyl-1,3-dihydrofuro[3,4-c][1,7]naphthyridine-8-carboxamide and 4-amino-N-((3S)-4-fluoro-6-(trifluoromethyl)-2,3-dihydro-1-benzofuran-3-yl)-N-methyl-1,3-dihydrofuro[3,4-c][1,7]naphthyridine-8-carboxamide] | 6.91 | 5.25
24 | CN(C(=O)c1cc2c(cc1F)nc(N)c1cnn(C)c12)[C@H]1COc2cc(OC(F)F)ccc21 (single isomer, unassigned) [Example 570] | 6.87 | 5.04
25 | C[C@@H]1OCc2c1c(N)nc1cnc(C(=O)N(C)[C@@H]3COCc4nc(C(F)(F)F)ccc43)cc21 [Example 271, (3S)-4-amino-N,3-dimethyl-N-((5S)-2-(trifluoromethyl)-5,8-dihydro-6H-pyrano[3,4-b]-pyridin-5-yl)-1,3-dihydrofuro-[3,4-c][1,7]naphthyridine-8-carboxamide] | 6.02 | 4.50
26 | CC(=O)N1CC=C(c2ccc3c(c2)OCC3N(C)C(=O)c2ccc3nc(N)c4c(c3c2)COC4)CC1 (stereo not drawn) [Example 689, N-(6-(1-acetyl-1,2,3,6-tetrahydropyridin-4-yl)-2,3-dihydrobenzofuran-3-yl)-4-amino-N-methyl-1,3-dihydrofuro[3,4-c]quinoline-8-carboxamide] | 7.00 | 5.34
27 | CN(C(=O)c1cc2c3c(c(N)nc2cn1)COC3)[C@H]1COc2cc(Cl)ccc21 (single isomer, unassigned) [Example 334] | 4.92 | 4.30
28 | C[C@H]1OCc2c1c(N)nc1ccc(C(=O)N(C)[C@H]3COc4cc(C(F)(F)F)ccc43)cc21 (single isomer, unassigned) [Example 538] | 5.73 | 4.63
29 | CN(C(=O)c1cc2c3c(c(N)nc2cn1)COC3)[C@@H]1COc2cc(S(F)(F)(F)(F)F)ccc21 (single isomer, unassigned) [Example 343] | 7.72 | 6.24
30 | CN(C(=O)c1cc2c(cc1F)nc(N)c1cnn(C)c12)[C@@H]1COc2cc(C(F)(F)F)cc(F)c21 (single isomer, unassigned) [Example 380] | 7.64 | 5.81
